# Data reported in US7910597B2, “Substituted quinazolines” (Shire LLC, priority 2006, dated 2011).
# Where a name gives a salt, the structure may show the parent alone. Read-outs that look alike come from different tables or passages of the source.
# Columns and labels:
# [1] = In vitro metabolic stability in human hepatocytes; assay type: in vitro ADME
# Excerpt: (§1) This comparatively longer half-life for 3,3 dimethyl anagrelide observed in the dog was mirrored in an in vitro metabolic stability study in which it was clearly much more metabolically stable than anagrelide (see table below). Hepatic metabolism is known to be the principal mechanism of clearance of anagrelide in both animals and in man.
# [2] = test system: megakaryocytopoiesis (human cell-line); assay: In vitro anti-megakaryocytic activity in a model of megakaryocytopoiesis (human cell-line); assay type: cell-based
# Experimental: Assessment of the in vitro anti-megakaryocytic activity—and potentially therefore the platelet lowering capability—of the 3-substituted analogues of anagrelide was conducted using a well established model of megakaryocytopoiesis (Cohen-Solal et at, Thromb. Haemost. 1997, 78:37-41 and Cramer et al, Blood, 1997, 89:2336-46). It can be readily seen that with anagrelide the benefit ratio (therapeutic to adverse effects) was comparatively low at 0.024:1 (after accounting for the predominant exposure to the cardioactive metabolite in vivo).
# [3] = molecular target: human phosphodiesterase III (PDE III); assay: In vitro PDE III inhibition (human enzyme); assay type: biochemical
# [4] = Pharmacokinetics in the conscious dog model; assay type: in vivo; conditions: geometric mean ± % CV
# Experimental: A comparison of the pharmacokinetic profile in the dog of anagrelide and a representative 3-substituted analogue is shown below:—
# Comparative Pharmacokinetics of Anagrelide, its Resultant Active Metabolite and a Representative 3-Substituted Analogue Follow 1 mg/kg iv in the Conscious Dog Model
# dog heart rate = assay: In vivo cardiovascular effects on dog heart rate
# Excerpt: (§2) A comparison of the in vivo cardiovascular effects of anagrelide, its active metabolite and a representative example of an improved analogue shown in the table below:—
# [5] = In vitro metabolic stability in dog hepatocytes; assay type: in vitro ADME
# Excerpt: as §1
# [6] = Solubility in test media, saturated solutions, HPLC; assay type: physicochemical; conditions: ca. 20° C.; for solubility at 20 min: thermodynamic from solid
# Experimental: Solubility studies were carried out on a number of anagrelide derivatives according to the present invention in various test media. The test media were; • a) singly distilled water (pH 5.0)—note no attempt was made to remove dissolved CO2. • b) 50 mM ammonium formate (pH 7.9) • c) 0.1 M hydrochloric acid (pH 0.6)
# Calibration plots of HPLC peak area vs. concentration were obtained in MeOH or MeOH/DMSO over the range 1000-1 μg/ml for each substance at a temperature 20-22° C. The HPLC method used a reverse phase C18 column with a water (0.6% formic acid) and acetonitrile gradient. For the solubility studies, saturated solutions were prepared by dissolving in the desired medium with the aid of an ultrasonic bath for 20 minutes and the excess solid removed by centrifugation. The concentration of the substance in the supernatant liquid was determined from the measured peak area.
# [7] = test system: megakaryocytopoiesis (human cell-line); conditions: background; cited from earlier work
# [8] = test system: human phosphodiesterase III (PDE III); conditions: background, cited from earlier work; for IC50: read-out: IC50 as PDE III inhibitor
# [9] = cited from earlier work
# [10] = test system: erythroid or myelomonocytic differentiation; conditions: stimulated by erythropoietin or granulocyte-macrophage colony-stimulating factor; cited from earlier work
# heart rate = assay: In vivo cardiovascular effects on dog heart rate; conditions: in vivo
# Excerpt: as §2
# [11] = Example 1 table, read-out: IC50 for anti-megakaryocytic (platelet lowering) activity
# [12] = read-out: In vitro IC50 for anti-megakaryocytic effects (human cell-line)
# [13] = Example 1 table, read-out: IC50 for PDE III inhibition (cardiovascular effects)
# [14] = read-out: In vitro IC50 for PDE III inhibition (human enzyme)
smiles,measurement,setting,value
"CC1(C)C(=O)NC2=Nc3ccc(Cl)c(Cl)c3CN21 [3,3 dimethyl anagrelide, 3,3-dimethylanagrelide]","In vitro ""half-life"" in human hepatocytes",[1],22.8 h
same,IC50,[2]; [11],164 nM
same,IC50,[2]; [12],166 nM
same,IC50,[3]; [13],166 nM
same,IC50,[3]; [14],164 nM
same,AUC(0-t),[4]; 1 mg/kg,1903 ± 47 ng·h/mL
same,Cmax,[4]; 1 mg/kg,167 ± 33 ng/mL
same,T1/2,[4]; 1 mg/kg,9.39 h
same,CL,[4]; after 1 mg/kg iv,2.97 ± 0.765 mL/min/kg
same,Vss,[4]; after 1 mg/kg iv,1.967 ± 0.024 L/kg
same,In vivo ED20 for effects on dog heart rate,dog heart rate,"2,512 μg/kg"
same,In vivo ED50 for effects on dog heart rate,dog heart rate,"3,557 ug/kg μg/kg"
same,"In vitro ""half-life"" in dog hepatocytes",[5],No apparent degradation
"O=C1[N-]C2=Nc3ccc(Cl)c(Cl)c3CN2C12CC2.[Na+] [3,3,Spiro-Cyclopropyl-anagrelide sodium salt]","Solubility in hydrochloric acid (0.1M, pH 0.6)","[6]; 0.1M HCl, pH 0.6",28 μg mL^−1
same,"Solubility in ammonium formate (50 mM, pH 7.9)","[6]; ammonium formate 50 mM, pH 7.9",1 μg mL^−1
same,Solubility in water (pH 5.0),"[6]; singly distilled water, pH 5.0",542 μg mL^−1
"Br.CC1(C)C(=O)NC2=Nc3ccc(Cl)c(Cl)c3CN21 [3,3-Dimethylanagrelide hydrobromide]","Solubility in hydrochloric acid (0.1M, pH 0.6)","[6]; 0.1M HCl, pH 0.6",215 μg mL^−1
same,"Solubility in ammonium formate (50 mM, pH 7.9)","[6]; ammonium formate 50 mM, pH 7.9",4 μg mL^−1
same,Solubility in water (pH 5.0),"[6]; singly distilled water, pH 5.0",20 μg mL^−1
"CC1(C)C(=O)[N-]C2=Nc3ccc(Cl)c(Cl)c3CN21.[Na+] [3,3-Dimethylanagrelide sodium salt]","Solubility in hydrochloric acid (0.1M, pH 0.6)","[6]; 0.1M HCl, pH 0.6",212 μg mL^−1
same,"Solubility in ammonium formate (50 mM, pH 7.9)","[6]; ammonium formate 50 mM, pH 7.9",6 μg mL^−1
same,Solubility in water (pH 5.0),"[6]; singly distilled water, pH 5.0",409 μg mL^−1
"Br.O=C1NC2=Nc3ccc(Cl)c(Cl)c3CN2C12CC2 [3,3-spiro-Cyclopropyl-anagrelide hydrobromide]","Solubility in hydrochloric acid (0.1M, pH 0.6)","[6]; 0.1M HCl, pH 0.6",35 μg mL^−1
same,"Solubility in ammonium formate (50 mM, pH 7.9)","[6]; ammonium formate 50 mM, pH 7.9",1 μg mL^−1
same,Solubility in water (pH 5.0),"[6]; singly distilled water, pH 5.0",2 μg mL^−1
C=c1c(=O)[n-]c2n1Cc1c(ccc(Cl)c1Cl)N=2.[Na+] [3-Methyleneanagrelide Na salt],"Solubility in hydrochloric acid (0.1M, pH 0.6)","[6]; 0.1M HCl, pH 0.6",189 μg mL^−1
same,"Solubility in ammonium formate (50 mM, pH 7.9)","[6]; ammonium formate 50 mM, pH 7.9",39 μg mL^−1
same,Solubility in water (pH 5.0),"[6]; singly distilled water, pH 5.0",1830 μg mL^−1
"C=c1c(=O)[nH]c2n1Cc1c(ccc(Cl)c1Cl)N=2 [3-Methyleneanagrelide, 3-methyleneanagrelide]","Solubility in hydrochloric acid (0.1M, pH 0.6)","[6]; 0.1M HCl, pH 0.6",43 μg mL^−1
same,"Solubility in ammonium formate (50 mM, pH 7.9)","[6]; ammonium formate 50 mM, pH 7.9",5 μg mL^−1
same,Solubility in water (pH 5.0),"[6]; singly distilled water, pH 5.0",9 μg mL^−1
"O=C1NC2=Nc3ccc(Cl)c(Cl)c3CN2C1O (stereo not shown) [3-hydroxy anagrelide, 3-hydroxyanagrelide]",Inhibition of megakaryocytopoiesis relative to parent drug (in words),[7],no more potent than the parent drug
same,Potency as PDE III inhibitor relative to anagrelide,[8]; more potent than anagrelide,over 40 fold
same,In vivo exposure relative to parent drug,[9]; after anagrelide treatment,2-3 fold
same,Typical half-life,"[9]; background, patients",2.5 h
same,IC50,[2]; [11],44 nM
same,IC50,[2]; [12],44 nM
same,IC50,[3]; [13],0.7 nM
same,IC50,[3]; [14],0.7 nM
same,AUC(0-t),[4]; 1 mg/kg,179 ± 14 ng·h/mL
same,Cmax,[4]; 1 mg/kg,60.1 ± 14 ng/mL
same,T1/2,[4]; 1 mg/kg,1.57 ± 24 h
same,In vivo ED20 for effects on dog heart rate,dog heart rate,7.1 µg/kg
same,In vivo ED50 for effects on dog heart rate,dog heart rate,11.72 ug/kg μg/kg
"O=C1NC2=Nc3ccc(Cl)c(Cl)c3CN2C12CC2 [3-spirocyclo propyl anagrelide, 3,3,spiro-cyclopropyl-anagrelide]",IC50,[2]; [11],547 nM
same,IC50,[3]; [13],797 nM
C[C@@H]1C(=O)NC2=Nc3ccc(Cl)c(Cl)c3CN21 [(R)-3-methyl anagrelide],Anti-megakaryocytic activity (in words),[2],good anti-megakaryocytic activity
same,PDE III inhibitory activity (in words),[3],significantly reduced PDE III inhibition relative to 3-OH anagrelide
C[C@H]1C(=O)NC2=Nc3ccc(Cl)c(Cl)c3CN21 [(S)-3-methyl anagrelide],Anti-megakaryocytic activity (in words),[2],good anti-megakaryocytic activity
same,PDE III inhibitory activity (in words),[3],significantly reduced PDE III inhibition relative to 3-OH anagrelide
"O=C1CN2Cc3c(ccc(Cl)c3Cl)N=C2N1 [Anagrelide hydrochloride, 6,7-dichloro-1,5-dihydroimidazo[2,1-b]-quinazolin-2(3H)-one hydrochloride monohydrate, reference compound]",solubility at 20 min,"[6]; 50 mM ammonium formate, aqueous buffer, ammonium formate 50 mM, pH 7.9, read-out: Solubility in ammonium formate (50 mM, pH 7.9)",10 µg/mL
same,solubility at 20 min,"[6]; 0.1 M hydrochloric acid, simulated gastric fluid, 0.1M HCl, pH 0.6, read-out: Solubility in hydrochloric acid (0.1M, pH 0.6)",169 µg/mL
same,solubility at 20 min,"[6]; singly distilled water, pH 5.0, read-out: Solubility in water (pH 5.0)",11 µg/mL
"O=C1CN2Cc3c(ccc(Cl)c3Cl)N=C2N1 [Anagrelide, 6,7-dichloro-1,5-dihydroimidazo[2,1-b]-quinazolin-2(3H)-one hydrochloride monohydrate]",Effect on erythroid or myelomonocytic differentiation (in words),[10],does not affect erythroid or myelomonocytic differentiation
same,IC50,[8],~29 nM
same,half-life,[1],6.62 h
same,First pass effect,[9]; background,> 50%
same,IC50,"[2]; Homo sapiens, Platelet, Example 1 table, read-out: IC50 for anti-megakaryocytic (platelet lowering) activity",27 nM
same,IC50,"[2]; Homo sapiens, read-out: In vitro IC50 for anti-megakaryocytic effects (human cell-line)",26 nM
same,IC50,[3]; [13],32 nM
same,IC50,[3]; [14],29 nM
same,clearance,"[4]; in vivo, after 1 mg/kg iv",19.3 mL/min/kg
same,Vd,"[4]; in vivo, after 1 mg/kg iv, read-out: Vss",1.011 ± 0.0038 L/kg
same,half-life,"[4]; in vivo, intravenous, 1 mg/kg",1.37 h
same,AUC(0-t),"[4]; in vivo, intravenous, 1 mg/kg, read-out: AUC(0-t)",101 ± 15 ng·h/mL
same,Cmax,"[4]; in vivo, intravenous, 1 mg/kg, read-out: Cmax",48.1 ± 21 ng/mL
same,In vivo ED20 for effects on dog heart rate,dog heart rate,376 µg/kg
same,ED50,heart rate,0.986 mg/kg
same,half-life,[5],1.25 h
Cc1[nH]c(=O)c(C#N)cc1-c1ccncc1 [milrinone],IC50,[8],170 to 350 nM
